Data: patent US20180186769A1, “6-AMINO-5-FLUORO-5-(FLUOROMETHYL)-2,3,4,5-TETRAHYDROPYRIDIN-2-YL-PHENYL-5-(METHOXY-D3)-PYRAZINE-2-CARBOXAMIDES AND FLUORINATED DERIVATIVES THEREOF AS BACE1 INHIBITORS” (H. Lundbeck A/S, priority 2016, published 2018)
Like-named read-outs stand apart in the source and are kept apart here.

What was measured:
[1] = biological target: BACE1 (Homo sapiens, UniProt P56817); assay: BACE1 efficacy assay (FRET-based); format: biochemical; parameters: purchased Life Technologies P2985; conditions: 10 μM test compound
BACE1, sequence (P56817 46-501): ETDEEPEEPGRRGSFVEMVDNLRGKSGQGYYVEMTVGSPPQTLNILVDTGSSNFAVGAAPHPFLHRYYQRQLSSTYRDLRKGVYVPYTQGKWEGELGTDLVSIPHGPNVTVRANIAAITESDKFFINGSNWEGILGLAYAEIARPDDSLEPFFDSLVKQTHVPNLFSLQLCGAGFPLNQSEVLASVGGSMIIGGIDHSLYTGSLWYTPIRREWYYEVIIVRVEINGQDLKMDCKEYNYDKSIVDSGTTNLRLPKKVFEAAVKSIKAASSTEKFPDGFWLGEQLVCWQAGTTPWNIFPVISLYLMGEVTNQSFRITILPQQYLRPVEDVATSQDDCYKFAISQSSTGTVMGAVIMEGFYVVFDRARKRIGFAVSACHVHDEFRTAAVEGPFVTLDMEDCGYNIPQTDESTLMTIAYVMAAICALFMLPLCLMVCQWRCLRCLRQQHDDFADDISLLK
Procedure: The efficacy assay was performed as a FRET-based assay using a commercially available BACE1 kit (Life Technologies, P2985). 2 μl test compound at 10 μM (final concentration) and 15 μl BACE1 enzyme from the kit (final concentration 3 nM) were preincubated for 15 minutes at room temperature before addition of 15 μl of substrate from the kit (250 nM final concentration) and incubated for additional 90 minutes at room temperature. The assay plate was subsequently read in a Pherastar (Ex540/Em590). The enzyme activity observed in presence of test compound were normalized to the enzyme activity observed in presence of buffer and 10 μM (final concentration) of the high affinity BACE1 reference inhibitor (S)-6-[3-Chloro-5-(5-prop-1-ynyl-pyridin-3-yl)-thiophen-2-yl]-2-imino-3,6-dimethyl-tetrahydropyrimidin-4-one, respectively. The efficacy of the test compounds was evaluated at 10 μM (final concentration) and defined as the percent inhibition of the enzyme activity using the equation % inhibition=100%−normalized enzyme activity in percent.

[2] = Clearance in hepatocytes, rat; format: in vitro ADME; conditions: read-out: CLint, Rat (L/h/kg) ± SD (converted)
From the text: (§1) Deuterated compounds were compared to their non-deuterated parent counterparts to determine the impact of deuteration on clearance results

[3] = Clearance in hepatocytes, cyno; format: in vitro ADME; conditions: cynomolgus monkey, read-out: CLint, Cyno (L/h/kg) ± SD (converted)
From the text: as §1

[4] = Bioanalysis of brain and plasma samples (UPLC-MS/MS); format: in vivo, Sprague Dawley rats; conditions: male, po, rat, p.o.; for Kp at 0.5 h / Kp at 1 h / Kp at 3 h / Kp at 6 h / Kp at 12 h: read-out: Brain/Plasma ratio
Procedure: Young adult Male Sprague Dawley rats of approximately 250 g weight were purchased from Charles River and received vehicle (2.5% HP betaCD+1M MeSO4, pH 2.5) or 0-40 mg/kg of test compounds (dissolved in vehicle) by oral gavage (p.o). The compounds are dosed at a volume of 5 ml/kg. Cohorts of 5-10 animals were established for each treatment condition.
Studies were set up as acute dose response treatment studies were samples were taken at T=180 minutes after initial dosing, or as 12 h or 24 h timecourse treatment studies. At the end of the test period, the animals were stunned and decapitated with a guillotine. Trunk-blood was sampled in EDTA coated tubes after decapitation of the animal. The blood was centrifuged at 2200G at 4° C. for 15 minutes and the plasma was collected and frozen at −80° C. The blood was aliquoted for Aβ ELISA and DMPK analysis. Immediately following sacrifice, the brain was extracted and split into 2 halves. The left half was dissected; with the front forebrain taken for Aβ ELISA and the remainder used for DMPK analysis. These samples were also snap frozen on dry ice and stored at −80° C. until use for analysis. The right hemibrains were snap frozen on dry ice and stored at −80° C. for independent confirmatory Aβ ELISA evalution.
TC was determined in plasma and brain homogenate using UltraPerformance LC® (UPLC®) chromatography followed by tandem-MS (MS/MS) detection.
Brain homogenate was prepared by homogenizing the brain 1:4 (v/v) with water:2-propanol:DMSO (50:30:20 v/v/v) followed by centrifugation and collection of the supernatant. Calibration standards and QC samples were prepared using a Hamilton robot. 150 μL of ISTD in acetonitrile (1 ng/mL ISTD) was added to 25 μL of calibration standards, QC samples and test samples (plasma and brain homogenate) using a Biomek robot. After centrifugation (6200 g, 4° C., 20 min) 100 μL supernatant from each sample was transferred to a new plate and mixed with 100 μL water with 0.1% formic acid using a Biomek robot (method file InVivo transfer). After a quick centrifugation (6200 g, 4° C., 5 min) the samples were placed in the auto-sampler.
MS/MS detection was done with an Applied Biosystems Sciex API 4000 instrument in positive-ion electrospray ionisation mode. TC and ISTD were detected at a parent>daughter mass to charge ratio (m/z). Nitrogen was used for the nebulizer and collision gases. The peak area correlated linearly with the plasma and brain concentration of the analytes in the range of 1.00-1000 ng/mL plasma and 5.00-5000 ng/g brain (corrected for dilution). If the plasma/brain sample drug concentration was above 1000 ng/mL or 5000 ng/g, the sample was diluted appropriately in blank plasma/blank brain homogenate before analysis.

[5] = Sprague Dawley, brain and plasma, 10 mg/kg
[6] = Sprague Dawley, brain, 10 mg/kg, read-out: Mean rat brain conc.
[7] = Sprague Dawley, plasma, 10 mg/kg, read-out: Mean rat plasma conc.
[8] = Sprague-Dawley, brain, 20 mg/kg, read-out: Mean rat brain conc.
[9] = Sprague-Dawley, brain, 40 mg/kg, read-out: Mean rat brain conc.
[10] = Sprague-Dawley, brain/plasma, 20 mg/kg
[11] = Sprague-Dawley, brain/plasma, 40 mg/kg
[12] = Sprague-Dawley, plasma, 20 mg/kg, read-out: Mean rat plasma conc.
[13] = Sprague-Dawley, plasma, 40 mg/kg, read-out: Mean rat plasma conc.

inhibition at 10 µM [1]: 100% | CLint scaled at 0.1 µM ([2]; 0.1 microM): 1.5 L/h/kg | CLint scaled at 0.3 µM ([2]; 0.3 microM): 1.2 L/h/kg | CLint scaled at 1 µM ([2]; 1 microM): < 0.4 L/h/kg | CLint scaled at 0.1 µM ([3]; 0.1 microM): 75 L/h/kg | CLint scaled at 0.3 µM ([3]; 0.3 microM): 74 L/h/kg | CLint scaled at 1 µM ([3]; 1 microM): 20 L/h/kg | Kp at 0.5 h [4, 5]: 1.8 | Kp at 1 h [4, 5]: 2.3 | Kp at 3 h [4, 5]: 2.1 | Kp at 6 h [4, 5]: 1.9 | Kp at 12 h [4, 5]: 1.7 | concentration at 0.5 h [4, 6]: 550 ng/g | concentration at 1 h [4, 6]: 1100 ng/g | concentration at 3 h [4, 6]: 700 ng/g | concentration at 6 h [4, 6]: 430 ng/g | concentration at 12 h [4, 6]: 140 ng/g | concentration at 0.5 h [4, 7]: 300 ng/mL | concentration at 1 h [4, 7]: 500 ng/mL | concentration at 3 h [4, 7]: 340 ng/mL | concentration at 6 h [4, 7]: 230 ng/mL | concentration at 12 h [4, 7]: 79 ng/mL | concentration at 0.5 h [4, 8]: 1530 ng/g | concentration at 1 h [4, 8]: 2380 ng/g | concentration at 3 h [4, 8]: 1960 ng/g | concentration at 6 h [4, 8]: 1540 ng/g | concentration at 12 h [4, 8]: 438 ng/g | concentration at 0.5 h [4, 9]: 2500 ng/g | concentration at 1 h [4, 9]: 2800 ng/g | concentration at 3 h [4, 9]: 3000 ng/g | concentration at 6 h [4, 9]: 3700 ng/g | concentration at 12 h [4, 9]: 1100 ng/g | Kp at 0.5 h [4, 10]: 2.9 | Kp at 1 h [4, 10]: 3.9 | Kp at 3 h [4, 10]: 3.4 | Kp at 6 h [4, 10]: 3.2 | Kp at 12 h [4, 10]: 2.7 | Kp at 0.5 h [4, 11]: 2.8 | Kp at 1 h [4, 11]: 3.1 | Kp at 3 h [4, 11]: 2.8 | Kp at 6 h [4, 11]: 3 | Kp at 12 h [4, 11]: 2.5 | concentration at 0.5 h [4, 12]: 532 ng/mL | concentration at 1 h [4, 12]: 614 ng/mL | concentration at 3 h [4, 12]: 572 ng/mL | concentration at 6 h [4, 12]: 477 ng/mL | concentration at 12 h [4, 12]: 159 ng/mL | concentration at 0.5 h [4, 13]: 740 ng/mL | concentration at 1 h [4, 13]: 880 ng/mL | concentration at 3 h [4, 13]: 1100 ng/mL | concentration at 6 h [4, 13]: 1200 ng/mL | concentration at 12 h [4, 13]: 410 ng/mL
SMILES: [2H]C([2H])([2H])Oc1cnc(C(=O)Nc2ccc(F)c([C@]3(C)CC[C@@](F)(CF)C(N)=N3)c2)cn1 [Example 1, N-(3-((2S,5S)-6-amino-5-fluoro-5-(fluoromethyl)-2-methyl-2,3,4,5-tetrahydropyridin-2-yl)-4-fluorophenyl)-5-(methoxy-d3)pyrazine-2-carboxamide]
